Read-outs that look alike come from different tables or passages of the source.
Legend:
[1] = system: A549 cells; assay: Cytotoxicity of PA, Alamar Blue cell viability; type: cell-based, human
Method: Cytotoxicity of picolinic acid (PA) was tested by incubating human lung epithelial cells (A549 cells) with increasing concentrations of PA for up to 72 hrs and cell viability was measured at every 12 hr time intervals using Alamar Blue cell viability reagent (FIG. 1A). A549 cells were procured from ATCC, Manassas, Va., USA.
A549 cells were seeded in 96-well cell culture dishes and 24 hr later treated with 0.02, 0.2, 2, and 20 mM PA in triplicates. Cells were then incubated at 37° C., 5% CO2, and cytotoxicity was measured at 12, 24, 36, 48, 60, and 72 hr post-treatment using AlamarBlue™ Cell Viability Reagent (DAL 1025, Thermo Fisher) as per manufacturer's instructions.

[2] = system: Influenza virus (NS1 Luc); assay: microbe, parasite or virus in culture; type: cell-based, Influenza A virus; conditions: unidentified influenza virus, A549, read-out: inhibition of virus (luminescence, percentage of untreated virus control)
[3] = system: Para Influenza virus (HPIV Luc); assay: microbe, parasite or virus in culture; type: cell-based, Human parainfluenza virus; conditions: unidentified influenza virus
[4] = system: pseudotyped SARS CoV-2 particles; assay: microbe, parasite or virus in culture; type: cell-based
[5] = system: SARS-CoV-2 (isolate hCoV-19/Hong Kong/VM20001061/2020); assay: SARS-CoV-2 multi-cycle infection, viral RNA by qRT-PCR; type: cell-based; conditions: for decrease in total viral RNA copy numbers: 0.01 MOI, 48 hr (FIG. 6)
[6] = system: SARS-CoV-2; assay: SARS CoV-2 infection studies in the hamster model; type: in vivo, Syrian golden hamsters; conditions: for viral RNA load mitigated by: 20 mg/kg PA therapeutic treatment
[7] = system: SARS-CoV-2; assay: SARS CoV-2 time of addition assay (IFA for spike, western blot); type: cell-based; conditions: for virus replication mitigated (spike positive cells, IFA): 10 MOI
[8] = system: PR8 WT virus; assay: IAV time of addition assay (IFA for NP, western blot), Example 10; type: cell-based, Influenza A virus; conditions: for inhibition at 2000 µM: Influenza A virus
[9] = system: R18 labelled PR8 WT virus; assay: Influenza virus membrane fusion assay (R18 fluorescence); type: cell-based, Influenza A virus
[10] = system: Tf647 labelled endocytic vesicles; assay: Localization of transferrin labelled vesicles, confocal microscopy; type: cell-based; conditions: VeroE6, 2 mM PA, 100 MOI PR8 WT virus
Method: Localization of transferrin labelled vesicles: Vero cells were seeded on glass coverslips in a 12 well dish to reach 70-80% confluency next day. After 3 hr treatment/not with 2 mM PA, cells were washed once with ice cold PBS and the plate was placed on ice for 10 min before incubating with OptiMEM containing PR8 wild type virus (100 MOI) and 25 μg/mL Transferrin 647 (Tf-647) for 1 hr on ice. Cells were washed twice with PBS and the plate moved to 37° C. After a 15 min chase, cells were fixed with 4% PFA, labelled with anti influenza virus HA antibody (PY102) followed by anti-mouse Alexa 488 secondary antibody to label the virus particles. Nuclei were labelled using 0.1 μg/mL DAPI. Images were acquired using a Zeiss LSM-880 Multiphoton microscope.
The dispersion of transferrin labelled vesicles from perinuclear region to cell periphery was quantified by drawing region of interests (ROIs) up to 20 μm away from the nuclei. The fluorescence intensity of Tf-647 labelled vesicles was then measured along this distance using ImageJ/Fiji.

[11] = system: PR8 WT virus particles; design: species or system Influenza A virus
[12] = system: CVB3; assay: CVB3 multi-dose infection, plaque assay of supernatants; type: cell-based, Coxsackie virus B3; conditions: Vero cells, increasing concentrations of PA, 0.1 MOI, 48 hr p.i.
From the text: Further, Vero cells were pre-treated with increasing concentrations of PA as indicated and infected with 0.1 MOI CVB3 in the presence of drugs. 48 hr p.i, cell culture supernatants were used to quantify infectious virus by plaque assay.

[13] = system: Adenovirus 5 expressing eGFP; assay: Adenovirus 5 eGFP infection of HEK cells, flow cytometry; type: cell-based, Adenovirus Serotype 5; conditions: 2 mM PA, 10 MOI, 24 hr
[14] = system: M. smegmatis cells; assay: Bacterial toxicity assay, OD600; type: cell-based, Mycobacterium smegmatis; conditions: up to 24 hr, least concentration tested
Method: Since most of the naked viruses tested were not inhibited by PA, whether PA would be effective against TM4 mycobacteriophages. M. smegmatis cells in a 48 well plate were treated with increasing concentrations of PA as indicated and OD600 measurements were taken periodically up to 24 hr. […] For the antiviral assay, 1 mM PA was either added at the start of experiment or 3 hr prior to infection. In either case, there was no protection from TM4 mycobacteriophage induced cell death (FIG. 12, panel G).
Bacterial toxicity assay: PA stock solution of 1M concentration was prepared in sterile deionized water and diluted to obtain different concentrations (1 mM, 5 mM, 10 Mm, 20 mM, and 40 mM), in a 48-well plate. A total of 2×10^5 cells of M. smegmatis were added to each of the wells. The 48-well plate was placed in a rotary shaker incubator at 37° C. for 24 h. Readings were taken periodically using a Tecan Spark multi-mode plate reader at 600 nm.

[15] = mouse, in vivo

## O=C(O)c1ccccn1 [PA, pyridine-2-carboxylic acid]
[1]; 20 mM PA, 36 hr post treatment
  cell viability: loss of cell viability
[1]; over the period of 72 hr
  drug concentration non-toxic to cells: up to 2 mM
[2]
  inhibition at 2000 µM: 70 to 80%
[3]; A549, 48 h, read-out: inhibition in reporter virus assay
  inhibition at 2000 µM: 80 to 90%
[3]; A549, read-out: inhibition of virus (luminescence, percentage of untreated virus control)
  inhibition at 2000 µM: 70 to 80%
[4]
  more effective than CM: ~10%
[4]; Severe acute respiratory syndrome coronavirus 2, 60 h, read-out: inhibition of SARS-CoV-2 spike pseudotyped particles (firefly luciferase normalized to virus control)
  inhibition at 2000 µM: 90%
[4]; Severe acute respiratory syndrome coronavirus 2, read-out: inhibition of pseudotyped SARS CoV-2 virus entry
  inhibition at 2000 µM: > 50%
[5]; Calu3, 2 mM PA
  decrease in total viral RNA copy numbers: ~1 log10
[5]; Calu3, 2 mM PA, 0.1 MOI, 48 hr (FIG. 7E)
  reduction in viral load: 2 log
[5]; HEK ACE2, 2 mM PA
  decrease in total viral RNA copy numbers: three
[5]; VeroE6, 2 mM PA
  decrease in total viral RNA copy numbers: three
[6]; 20 mg/kg PA prophylactically by IP injection
  reduction in lung viral load: ~2.5 fold
[6]; 20 mg/kg PA prophylactically, delivered orally
  decrease in lung viral load: 1 log
[6]; IP route
  viral RNA load mitigated by: ~1 log
[6]; oral route
  viral RNA load mitigated by: ~1 log
[6]; 20 mg/kg PA, prophylactic and therapeutic groups
  body weight and lung weight compared to mock treated animals: body weight as well as corresponding lung weight rescue
[6]; PA treated groups vs mock treated
  gross lung pathology and inflammation (images of whole lungs): much of the pathology reduced
[6]; PA treatment groups
  histopathology analysis and scoring of lung sections: decreased pathology
[7]; HEK ACE2, PA added 6 hr post infection, collected 3 hr later
  inhibition of virus (IFA, western blot): ~50%
[7]; HEK ACE2, no pre-treatment, infected in presence of drug (T0)
  inhibition of virus (IFA, western blot): almost no inhibition
[7]; HEK ACE2, pre-treated 3 hr with 2 mM PA (-3 hr)
  virus replication mitigated (spike positive cells, IFA): > 80%
[7]; VeroE6, PA added 6 hr post infection, collected 3 hr later
  inhibition of virus (IFA, western blot): no inhibition
[7]; VeroE6, no pre-treatment, infected in presence of drug (T0)
  inhibition of virus (IFA, western blot): almost no inhibition
[7]; VeroE6, pre-treated 3 hr with 2 mM PA (-3 hr)
  virus replication mitigated (spike positive cells, IFA): > 80%
[8]
  NP positive cells (IFA): No differences
[8]; PR8, 1 h, read-out: inhibition (IFA for nucleoprotein and western blot)
  inhibition at 2000 µM: 50%
[8]; PR8, A549, 3 h, read-out: inhibition (IFA, NP)
  inhibition at 2000 µM: 80%
[9]
  virus-entry associated increase in fluorescence intensity: able to inhibit
[10]
  distance of Tf647 labelled endocytic vesicles from the nuclei: 15-20 microns
[11]
  virion structural integrity by TEM compared to untreated control: severe disruption of viral envelope
[12]
  infectious virus in supernatants (plaque assay): did not imply any differences
[13]
  GFP positive cells, treated vs untreated: Almost no differences
[14]
  non-toxic concentration (OD600): 1 mM
[15]
  toxicity (bodyweight changes over 9 days): toxic
[15]; ip
  body weight vs PBS treated control: no differences in body weight
  decrease in total body weight: 10-12%
